Measurements as given in US11377442B2, “Small molecule agonists and antagonists of NR2F6 activity” (ZANDER THERAPEUTICS, INC., priority 2016, dated 2022).
“And” between values parts separate entries of the source, which are not always exact repeats. Equal entries are not always repeated. Where two headings read alike, the source gives them in different places.

Key:
Format in all cases: cell-based
HEK293 pGL4 = assay: Firefly_pGL signal, cmpd/DMSO (pGL4 control cells); conditions: Homo sapiens
NR2F6 = target: T1, NR2F6 (Homo sapiens, UniProt P10588); assay: NR2F6 agonist screening, Firefly signal cmpd/DMSO
T1 construct: expressed in transfected cells; also transient transfection
T1 sequence (P10588 1-404): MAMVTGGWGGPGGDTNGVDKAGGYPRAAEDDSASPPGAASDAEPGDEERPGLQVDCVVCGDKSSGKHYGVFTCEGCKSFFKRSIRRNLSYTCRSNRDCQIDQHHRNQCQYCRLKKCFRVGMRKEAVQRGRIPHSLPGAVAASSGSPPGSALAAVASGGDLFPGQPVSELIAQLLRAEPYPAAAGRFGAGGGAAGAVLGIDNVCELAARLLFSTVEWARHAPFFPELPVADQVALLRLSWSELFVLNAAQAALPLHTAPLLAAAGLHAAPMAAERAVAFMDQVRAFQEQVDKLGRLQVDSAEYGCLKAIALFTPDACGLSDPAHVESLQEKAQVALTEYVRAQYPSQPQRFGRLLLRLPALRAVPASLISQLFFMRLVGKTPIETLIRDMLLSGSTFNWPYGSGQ

NR2F6 LBD = target: T2, NR2F6 LBD (Homo sapiens, UniProt P10588); assay: NR2F6 LBD transient transfection
T2 construct: expressed in transfected cells
T2 sequence (P10588 165-393 limits assumed): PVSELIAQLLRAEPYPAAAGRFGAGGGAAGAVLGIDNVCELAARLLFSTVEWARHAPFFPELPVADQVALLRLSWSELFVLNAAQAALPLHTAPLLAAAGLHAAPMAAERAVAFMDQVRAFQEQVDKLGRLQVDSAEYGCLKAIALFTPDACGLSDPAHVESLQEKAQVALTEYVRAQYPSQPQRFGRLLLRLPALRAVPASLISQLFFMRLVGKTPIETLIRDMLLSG
Procedure, shortened: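 LBD-transfected cells treated at 40, 10, 2 and 0.5 μM (4 replicates); cytotoxicity measured in parallel, normalized to DMSO (0%) and zero signal (100%). Higher concentrations excluded where signal loss reflected toxicity.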

Renilla [1] = assay: Renilla signal in NR2F6 agonist screening, cmpd/DMSO; conditions: Renilla
Renilla [2] = assay: Renilla signal, LBD, cmpd/DMSO (NR2F6 LBD transfected cells)
[3] = HEK293, 0.5 uM, read-out: Firefly pGL4, cmpd/DMSO (mean)
[4] = HEK293, 2 uM, read-out: Firefly pGL4, cmpd/DMSO (mean)
[5] = HEK293, 10 uM, read-out: Firefly pGL4, cmpd/DMSO (mean)
[6] = HEK293, 40 uM, read-out: Firefly pGL4, cmpd/DMSO (mean)
[7] = HEK293, pGL4, 1% FBS, 0.5 uM, read-out: Firefly, pGL4, 1% FBS, cmpd/DMSO (mean)
[8] = HEK293, pGL4, 1% FBS, 2 uM, read-out: Firefly, pGL4, 1% FBS, cmpd/DMSO (mean)
[9] = HEK293, pGL4, 1% FBS, 10 uM, read-out: Firefly, pGL4, 1% FBS, cmpd/DMSO (mean)
[10] = HEK293, pGL4, 1% FBS, 40 uM, read-out: Firefly, pGL4, 1% FBS, cmpd/DMSO (mean)
[11] = HEK293, pGL4, 10% FBS, 0.5 uM, read-out: Firefly, pGL4, 10% FBS, cmpd/DMSO (mean)
[12] = HEK293, pGL4, 10% FBS, 2 uM, read-out: Firefly, pGL4, 10% FBS, cmpd/DMSO (mean)
[13] = HEK293, pGL4, 10% FBS, 10 uM, read-out: Firefly, pGL4, 10% FBS, cmpd/DMSO (mean)
[14] = HEK293, pGL4, 10% FBS, 40 uM, read-out: Firefly, pGL4, 10% FBS, cmpd/DMSO (mean)
[15] = read-out: Renilla F4, cmpd/DMSO (mean)
[16] = F4, read-out: Renilla, F4, cmpd/DMSO (mean)
[17] = F4, 1% FBS, read-out: Renilla, F4, 1% FBS, cmpd/DMSO (mean)
[18] = F4, 10% FBS, read-out: Renilla, F4, 10% FBS, cmpd/DMSO (mean)

## CC(C)CCN[C@H]1CS(=O)(=O)C[C@@H]1S(=O)(=O)c1ccc(Cl)cc1 [Compound D131]
HEK293 pGL4; HEK293, 0.5 uM, pGL4, read-out: Firefly pGL4, cmpd/DMSO (mean)
  fold induction at 0.5 µM: 1.1
HEK293 pGL4; [3]
  fold induction at 0.5 µM: 1
HEK293 pGL4; HEK293, 2 uM, pGL4, read-out: Firefly pGL4, cmpd/DMSO (mean)
  fold induction at 2 µM: 1.5
HEK293 pGL4; [4]
  fold induction at 2 µM: 1.3
HEK293 pGL4; HEK293, 10 uM, pGL4, read-out: Firefly pGL4, cmpd/DMSO (mean)
  fold induction at 10 µM: 2.7
HEK293 pGL4; [5]
  fold induction at 10 µM: 2.3
HEK293 pGL4; HEK293, 40 uM, pGL4, read-out: Firefly pGL4, cmpd/DMSO (mean)
  fold induction at 40 µM: 0.5
HEK293 pGL4; [6]
  fold induction at 40 µM: 1
HEK293 pGL4; [7]
  fold induction at 0.5 µM: 1
HEK293 pGL4; [8]
  fold induction at 2 µM: 1.1
HEK293 pGL4; [9]
  fold induction at 10 µM: 1.7
HEK293 pGL4; [10]
  fold induction at 40 µM: 0.9
HEK293 pGL4; [11]
  fold induction at 0.5 µM: 1
HEK293 pGL4; [12]
  fold induction at 2 µM: 1.2
HEK293 pGL4; [13]
  fold induction at 10 µM: 1.9
HEK293 pGL4; [14]
  fold induction at 40 µM: 1.8
NR2F6; 0.5 uM
  Firefly F4, cmpd/DMSO (mean): 1.3
NR2F6; 0.5 uM, F4
  Firefly F4, cmpd/DMSO (mean): 1.4
NR2F6; 2 uM
  Firefly F4, cmpd/DMSO (mean): 1.4
NR2F6; 2 uM, F4
  Firefly F4, cmpd/DMSO (mean): 1.9
NR2F6; 10 uM
  Firefly F4, cmpd/DMSO (mean): 4.3
NR2F6; 10 uM, F4
  Firefly F4, cmpd/DMSO (mean): 4.1
NR2F6; 40 uM
  Firefly F4, cmpd/DMSO (mean): 0.9
NR2F6; 40 uM, F4
  Firefly F4, cmpd/DMSO (mean): 2.3
NR2F6; 1% FBS, 10 uM
  F4, Firefly/Renilla for S/B(F4) > 3: 2.7 and 2.1
NR2F6; 10% FBS, 10 uM
  F4, Firefly/Renilla for S/B(F4) > 3: 2.2
  Firefly, F4/pGL4 for S/B(F4) > 3: 2.2
NR2F6; 10% FBS, 40 uM
  F4, Firefly/Renilla for S/B(F4) > 3: 1.4 and 2.5
  Firefly, F4/pGL4 for S/B(F4) > 3: 2.3 and 2.1
NR2F6; F4, 1% FBS, 0.5 uM
  Firefly, F4, 1% FBS, cmpd/DMSO (mean): 0.8 and 0.9
NR2F6; F4, 1% FBS, 2 uM
  Firefly, F4, 1% FBS, cmpd/DMSO (mean): 1.5 and 0.9
NR2F6; F4, 1% FBS, 10 uM
  Firefly, F4, 1% FBS, cmpd/DMSO (mean): 5.4 and 3.6
NR2F6; F4, 1% FBS, 40 uM
  Firefly, F4, 1% FBS, cmpd/DMSO (mean): 0.8 and 0.7
NR2F6; F4, 10% FBS, 2 uM
  Firefly, F4, 10% FBS, cmpd/DMSO (mean): 1.1
NR2F6; F4, 10% FBS, 10 uM
  Firefly, F4, 10% FBS, cmpd/DMSO (mean): 4.1 and 2.3
NR2F6; F4, 10% FBS, 40 uM
  Firefly, F4, 10% FBS, cmpd/DMSO (mean): 4.2 and 6.2
NR2F6 LBD; 0.5 uM
  Firefly LBD, cmpd/DMSO (mean): 0.8
NR2F6 LBD; 0.5 uM, LBD
  Firefly LBD, cmpd/DMSO (mean): 1.3
NR2F6 LBD; 2 uM
  Firefly LBD, cmpd/DMSO (mean): 1.7
NR2F6 LBD; 2 uM, LBD
  Firefly LBD, cmpd/DMSO (mean): 2.0
NR2F6 LBD; 10 uM
  Firefly LBD, cmpd/DMSO (mean): 4.3
NR2F6 LBD; 10 uM, LBD
  Firefly LBD, cmpd/DMSO (mean): 3.6
NR2F6 LBD; 40 uM
  Firefly LBD, cmpd/DMSO (mean): 0.5
NR2F6 LBD; 40 uM, LBD
  Firefly LBD, cmpd/DMSO (mean): 0.7
Renilla [1]; [15]
  fold induction at 0.5 µM: 1
  fold induction at 2 µM: 1
  fold induction at 10 µM: 1.9
  fold induction at 40 µM: 0.3
Renilla [1]; [16]
  fold induction at 0.5 µM: 1.1
  fold induction at 2 µM: 1.2
  fold induction at 10 µM: 1.6
  fold induction at 40 µM: 1.8
Renilla [1]; [17]
  fold induction at 0.5 µM: 1
  fold induction at 2 µM: 1.3
  fold induction at 10 µM: 2
  fold induction at 40 µM: 2
Renilla [1]; [18]
  fold induction at 0.5 µM: 1
  fold induction at 2 µM: 1.1
  fold induction at 10 µM: 1.8
  fold induction at 40 µM: 3
Renilla [2]; 0.5 uM
  Renilla LBD, cmpd/DMSO (mean): 1.1
Renilla [2]; 2 uM
  Renilla LBD, cmpd/DMSO (mean): 1.1
Renilla [2]; 10 uM
  Renilla LBD, cmpd/DMSO (mean): 0.8
Renilla [2]; 40 uM
  Renilla LBD, cmpd/DMSO (mean): 0.2

## O=S1(=O)C[C@H](NCCCc2ccccc2)[C@@H](S(=O)(=O)c2ccc(Cl)cc2)C1 [Compound D137]
HEK293 pGL4; [3]
  fold induction at 0.5 µM: 0.8
HEK293 pGL4; [4]
  fold induction at 2 µM: 1.2
HEK293 pGL4; [5]
  fold induction at 10 µM: 1.5
HEK293 pGL4; [6]
  fold induction at 40 µM: 1.5
HEK293 pGL4; [7]
  fold induction at 0.5 µM: 1
HEK293 pGL4; [8]
  fold induction at 2 µM: 1
HEK293 pGL4; [9]
  fold induction at 10 µM: 1.5
HEK293 pGL4; [10]
  fold induction at 40 µM: 1.5
HEK293 pGL4; [11]
  fold induction at 0.5 µM: 0.7
HEK293 pGL4; [12]
  fold induction at 2 µM: 1.1
HEK293 pGL4; [13]
  fold induction at 10 µM: 2.1
HEK293 pGL4; [14]
  fold induction at 40 µM: 4.3
NR2F6; 0.5 uM
  Firefly F4, cmpd/DMSO (mean): 1.1
NR2F6; 2 uM
  Firefly F4, cmpd/DMSO (mean): 1.3
NR2F6; 10 uM
  Firefly F4, cmpd/DMSO (mean): 2.0
NR2F6; 40 uM
  Firefly F4, cmpd/DMSO (mean): 0.6
NR2F6; 1% FBS, 10 uM
  F4, Firefly/Renilla for S/B(F4) > 3: 1.9
  Firefly, F4/pGL4 for S/B(F4) > 3: 2.7
NR2F6; 1% FBS, 40 uM
  F4, Firefly/Renilla for S/B(F4) > 3: 1.0
  Firefly, F4/pGL4 for S/B(F4) > 3: 2.4
NR2F6; 10% FBS, 10 uM
  F4, Firefly/Renilla for S/B(F4) > 3: 2.2
  Firefly, F4/pGL4 for S/B(F4) > 3: 2.2
NR2F6; 10% FBS, 40 uM
  F4, Firefly/Renilla for S/B(F4) > 3: 3.3
  Firefly, F4/pGL4 for S/B(F4) > 3: 3.1
NR2F6; F4, 1% FBS, 0.5 uM
  Firefly, F4, 1% FBS, cmpd/DMSO (mean): 1.2
NR2F6; F4, 1% FBS, 2 uM
  Firefly, F4, 1% FBS, cmpd/DMSO (mean): 2.2
NR2F6; F4, 1% FBS, 10 uM
  Firefly, F4, 1% FBS, cmpd/DMSO (mean): 3.9
NR2F6; F4, 1% FBS, 40 uM
  Firefly, F4, 1% FBS, cmpd/DMSO (mean): 3.4
NR2F6; F4, 10% FBS, 0.5 uM
  Firefly, F4, 10% FBS, cmpd/DMSO (mean): 0.9
NR2F6; F4, 10% FBS, 2 uM
  Firefly, F4, 10% FBS, cmpd/DMSO (mean): 1.4
NR2F6; F4, 10% FBS, 10 uM
  Firefly, F4, 10% FBS, cmpd/DMSO (mean): 4.6
NR2F6; F4, 10% FBS, 40 uM
  Firefly, F4, 10% FBS, cmpd/DMSO (mean): 13
NR2F6 LBD; 0.5 uM
  Firefly LBD, cmpd/DMSO (mean): 1.1
NR2F6 LBD; 2 uM
  Firefly LBD, cmpd/DMSO (mean): 2.0
NR2F6 LBD; 10 uM
  Firefly LBD, cmpd/DMSO (mean): 3.2
NR2F6 LBD; 40 uM
  Firefly LBD, cmpd/DMSO (mean): 0.4
Renilla [1]; [15]
  fold induction at 0.5 µM: 1.1
  fold induction at 2 µM: 1.1
  fold induction at 10 µM: 1.8
  fold induction at 40 µM: 2.6
Renilla [1]; [17]
  fold induction at 0.5 µM: 1
  fold induction at 2 µM: 1.3
  fold induction at 10 µM: 2.1
  fold induction at 40 µM: 3.5
Renilla [1]; [18]
  fold induction at 0.5 µM: 1.2
  fold induction at 2 µM: 1.4
  fold induction at 10 µM: 2.1
  fold induction at 40 µM: 4
Renilla [2]; 0.5 uM
  Renilla LBD, cmpd/DMSO (mean): 1.0
Renilla [2]; 2 uM
  Renilla LBD, cmpd/DMSO (mean): 1.0
Renilla [2]; 10 uM
  Renilla LBD, cmpd/DMSO (mean): 0.8
Renilla [2]; 40 uM
  Renilla LBD, cmpd/DMSO (mean): 0.4
